Source: article PMC4632126, “High specific selectivity and Membrane-Active Mechanism of the synthetic centrosymmetric α-helical peptides with Gly-Gly pairs” (Scientific Reports, 2015)
Where no end group is shown, it is not given here.

Tests used:
S. aureus ATCC29213 = assay type: cell-based, Staphylococcus aureus; conditions: ATCC 29213, 5 h
Description: (§1) Minimal bactericidal concentrations (MBCs) were measured using the method which has been adopted from National Committee for Clinical Laboratory Standards (NCCLS), with modifications. In short, 50 μL peptide solutions were pipetted into microtiter plates at various concentrations ranging from 1 to 128 μM. Freshly grown bacteria were added to the each well in a density of 0.5–1 × 10^6 CFUmL^−1. Microtiter plated was incubated at 37 °C for 5 h. Fifty microliters of each incubation mixture was further serially diluted (up to 10^−3 of the initial bacterial concentration), transferred on agar plates and incubated overnight. On the following day, the number of colonies was evaluated and the initial CFU/well retrospectively calculated. The minimum bactericidal concentrations (μM) were determined as the lowest concentration of the peptides that prevented more than 99.9% bacteria growth.

[1] = test system: all of the 6 strains tested; assay: Geometric mean of MBCs and therapeutic index, all strains; assay type: cell-based; conditions: MHC/GM for all 6 strains; >128 counted as 256 μM
Description: as §1, with “In” for “Minimal bactericidal concentrations (MBCs) were measured using the method which has been adopted from National Committee for Clinical Laboratory Standards (NCCLS), with modifications. In”
(§2) The therapeutic index (TI) is calculated by the ration of the minimum hemolytic concentration (MHC) to the geometric mean of the MBC (GM) to evaluate cell selectivity of peptides.

[2] = test system: human red blood cells (hRBCs); assay: Hemolytic activity; conditions: concentration causing 5% hemolysis of human red blood cells; about 1% hRBC in PBS, 37 °C, 1 h, OD 576 nm
Description: The hemolytic activity of each peptide was evaluated using a modified method, as described previously[21][22]. […] Then, the collected hRBCs were washed three times with PBS (pH 7.2), centrifuged at 1000 × g for 5 min, and resuspended in PBS (final concentration, approximately 1%). Next, 50 μL of the hRBC suspension was placed into a 96-well cell culture plate with 50 μL of test peptide solution in PBS at different concentrations, and the mixture was incubated at 37 °C for 1 h. After incubation, the plate was centrifuged at 1000 × g for 5 min, the supernatant was transferred to a new 96-well cell culture plate, and the release of hemoglobin was measured by monitoring optical density (OD) at 576 nm. Untreated hRBCs suspension was used as a negative control, and the hRBCs treated with 0.1% Triton X-100 were employed as positive controls. Each test was reproduced at least 3 times using 6 replicates. Percent hemolysis was calculated using the following equation:

E. coli UB1005 = assay type: cell-based, Escherichia coli; conditions: UB1005, 5 h
Description: as §1

E. coli ATCC 25922 [3] = assay type: cell-based, Escherichia coli; conditions: ATCC 25922, 5 h
Description: as §1

S. typhimurium ATCC14028 = assay type: cell-based, Salmonella typhimurium; conditions: ATCC14028, 5 h
Description: as §1

S. epidermidis ATCC12228 = assay type: cell-based, Staphylococcus epidermidis; conditions: ATCC12228, 5 h
Description: In short, 50 μL peptide solutions were pipetted into microtiter plates at various concentrations ranging from 1 to 128 μM. Freshly grown bacteria were added to the each well in a density of 0.5–1 × 10^6 CFUmL^−1. Microtiter plated was incubated at 37 °C for 5 h. Fifty microliters of each incubation mixture was further serially diluted (up to 10^−3 of the initial bacterial concentration), transferred on agar plates and incubated overnight. On the following day, the number of colonies was evaluated and the initial CFU/well retrospectively calculated. The minimum bactericidal concentrations (μM) were determined as the lowest concentration of the peptides that prevented more than 99.9% bacteria growth. Each test was reproduced at least 3 times using 6 replicates.

[4] = test system: Methicillin-resistant S. aureus ATCC 43300; conditions: S. aureus 43300 (methicillin-resistant); lowest concentration preventing more than 99.9% growth; 37 °C, 5 h; representative of three trials
Description: as §1, with “In” for “Minimal bactericidal concentrations (MBCs) were measured using the method which has been adopted from National Committee for Clinical Laboratory Standards (NCCLS), with modifications. In”

[5] = test system: 3 gram-negative strains tested; assay: Geometric mean of MBCs and therapeutic index, gram-negative strains; assay type: cell-based; conditions: MHC/GM for 3 gram-negative strains; >128 counted as 256 μM
Description: as §1, with “In” for “Minimal bactericidal concentrations (MBCs) were measured using the method which has been adopted from National Committee for Clinical Laboratory Standards (NCCLS), with modifications. In”
as §2

[6] = test system: 3 gram-positive strains tested; conditions: MHC/GM for 3 gram-positive strains; >128 counted as 256 μM
Description: as §1, with “In” for “Minimal bactericidal concentrations (MBCs) were measured using the method which has been adopted from National Committee for Clinical Laboratory Standards (NCCLS), with modifications. In”
as §2

E. coli ATCC 25922 [7] = assay type: cell-based, Escherichia coli; conditions: ATCC 25922, 5 h; remark: listed apart in the source
Description: as §1, with “In short, 50 μL peptide solutions were pipetted into microtiter plates at various concentrations ranging from 1 to 128 μM.” left out, “growth. […] The salt sensitivity of the peptides was measured using a modified method, as described previously. […] The subsequent steps were consistent with the MBCs determination method.” for “growth.”

E. coli ATCC 25922 [8] = assay type: cell-based, Escherichia coli; conditions: ATCC 25922, 24 h
Description: The checkerboard titration method is commonly used to evaluate the synergy of different antibacterial combinations. First, 2-fold serial dilutions of the antibiotics and antimicrobial peptides were prepared. Subsequently, 50 μL each of different concentrations of antibiotics and of antimicrobial peptides was mixed and added into 100 μL of bacterial solution (containing approximately 0.5–1 × 10^6 CFU mL^−1) in each well of a 96-well plate. The plates were then incubated at 37 °C for 24 h. The subsequent steps were consistent with the MBCs determination method. The fractional inhibitory concentration (FIC) index (FICI) was calculated as follows: An FICI < 0.5 is considered to indicate synergy; 0.5 < FICI < 1.0 is considered additive; 1.0 < FICI < 4.0 is considered indifferent; and an FICI > 4.0 is considered antagonism.

S. aureus ATCC 29213 = assay type: cell-based, Staphylococcus aureus; conditions: ATCC 29213, 5 h
Description: as §1, with “In short, 50 μL peptide solutions were pipetted into microtiter plates at various concentrations ranging from 1 to 128 μM.” left out, “growth. […] The salt sensitivity of the peptides was measured using a modified method, as described previously. […] The subsequent steps were consistent with the MBCs determination method.” for “growth.”

AKLWALKAKLWALKAKLWALK-NH2 [AA3s1]
Minimum bactericidal concentration (S. aureus ATCC29213): 16 µM
TI (therapeutic index), all strains [1]: 1.41
MHC (minimum hemolytic concentration) [2]: 16 µM
Minimum bactericidal concentration (E. coli UB1005): 4 µM
Minimum bactericidal concentration (E. coli ATCC 25922 [3]): 2 µM
Minimum bactericidal concentration (S. typhimurium ATCC14028): 16 µM
Minimum bactericidal concentration (S. epidermidis ATCC12228): 64 µM
Minimum bactericidal concentration [4]: 16 µM
TI (therapeutic index), gram-negative [5]: 3.17
TI (therapeutic index), gram-positive [6]: 0.63

AKLWLKAAKLWLKA-NH2 [AA2]
Minimum bactericidal concentration (S. aureus ATCC29213): 16 µM
MBC with CaCl2 (E. coli ATCC 25922 [7]): 4 µM
MBC with FeCl3 (E. coli ATCC 25922 [7]): 1 µM
MBC with KCl (E. coli ATCC 25922 [7]): 1 µM
MBC with MgCl2 (E. coli ATCC 25922 [7]): 2 µM
MBC with NH4Cl (E. coli ATCC 25922 [7]): 1 µM
MBC with NaCl (E. coli ATCC 25922 [7]): 2 µM
MBC with ZnCl2 (E. coli ATCC 25922 [7]): 1 µM
MBC, control (E. coli ATCC 25922 [7]): 1 µM
TI (therapeutic index), all strains [1]: 12.70
MHC (minimum hemolytic concentration) [2]: 128 µM
Minimum bactericidal concentration (E. coli UB1005): 8 µM
Minimum bactericidal concentration (E. coli ATCC 25922 [3]): 1 µM
Minimum bactericidal concentration (S. typhimurium ATCC14028): 16 µM
Minimum bactericidal concentration (S. epidermidis ATCC12228): 32 µM
Minimum bactericidal concentration [4]: 16 µM
TI (therapeutic index), gram-negative [5]: 25.40
TI (therapeutic index), gram-positive [6]: 6.35
FIC index in combination with Ceftazidime (E. coli ATCC 25922 [8]): 1
FIC index in combination with Chloramphenicol (E. coli ATCC 25922 [8]): 1
FIC index in combination with Ciprofloxacin (E. coli ATCC 25922 [8]): 0.75
FIC index in combination with Streptomycin (E. coli ATCC 25922 [8]): 0.5
MBC with CaCl2 (S. aureus ATCC 29213): 64 µM
MBC with FeCl3 (S. aureus ATCC 29213): 16 µM
MBC with KCl (S. aureus ATCC 29213): 16 µM
MBC with MgCl2 (S. aureus ATCC 29213): 32 µM
MBC with NH4Cl (S. aureus ATCC 29213): 8 µM
MBC with NaCl (S. aureus ATCC 29213): 128 µM
MBC with ZnCl2 (S. aureus ATCC 29213): 8 µM
MBC, control (S. aureus ATCC 29213): 16 µM

AKLWLKAAKLWLKAAKLWLKA-NH2 [AA3]
Minimum bactericidal concentration (S. aureus ATCC29213): 4 µM
MBC with CaCl2 (E. coli ATCC 25922 [7]): 2 µM
MBC with FeCl3 (E. coli ATCC 25922 [7]): 2 µM
MBC with KCl (E. coli ATCC 25922 [7]): 1 µM
MBC with MgCl2 (E. coli ATCC 25922 [7]): 2 µM
MBC with NH4Cl (E. coli ATCC 25922 [7]): 2 µM
MBC with NaCl (E. coli ATCC 25922 [7]): 2 µM
MBC with ZnCl2 (E. coli ATCC 25922 [7]): 1 µM
MBC, control (E. coli ATCC 25922 [7]): 2 µM
TI (therapeutic index), all strains [1]: 2.52
MHC (minimum hemolytic concentration) [2]: 8 µM
Minimum bactericidal concentration (E. coli UB1005): 2 µM
Minimum bactericidal concentration (E. coli ATCC 25922 [3]): 2 µM
Minimum bactericidal concentration (S. typhimurium ATCC14028): 4 µM
Minimum bactericidal concentration (S. epidermidis ATCC12228): 4 µM
Minimum bactericidal concentration [4]: 4 µM
TI (therapeutic index), gram-negative [5]: 3.17
TI (therapeutic index), gram-positive [6]: 2
FIC index in combination with Ceftazidime (E. coli ATCC 25922 [8]): 1
FIC index in combination with Chloramphenicol (E. coli ATCC 25922 [8]): 1
FIC index in combination with Ciprofloxacin (E. coli ATCC 25922 [8]): 2
MBC with CaCl2 (S. aureus ATCC 29213): 4 µM
MBC with FeCl3 (S. aureus ATCC 29213): 4 µM
MBC with KCl (S. aureus ATCC 29213): 4 µM
MBC with MgCl2 (S. aureus ATCC 29213): 4 µM
MBC with NH4Cl (S. aureus ATCC 29213): 4 µM
MBC with NaCl (S. aureus ATCC 29213): 4 µM
MBC with ZnCl2 (S. aureus ATCC 29213): 4 µM
MBC, control (S. aureus ATCC 29213): 4 µM

AKLWLKAAKLWLKAAKLWLKAAKLWLKA-NH2 [AA4]
Minimum bactericidal concentration (S. aureus ATCC29213): 32 µM
MBC with CaCl2 (E. coli ATCC 25922 [7]): 8 µM
MBC with FeCl3 (E. coli ATCC 25922 [7]): 8 µM
MBC with KCl (E. coli ATCC 25922 [7]): 4 µM
MBC with MgCl2 (E. coli ATCC 25922 [7]): 8 µM
MBC with NH4Cl (E. coli ATCC 25922 [7]): 8 µM
MBC with NaCl (E. coli ATCC 25922 [7]): 64 µM
MBC with ZnCl2 (E. coli ATCC 25922 [7]): 4 µM
MBC, control (E. coli ATCC 25922 [7]): 8 µM
TI (therapeutic index), all strains [1]: 0.03
MHC (minimum hemolytic concentration) [2]: 1 µM
Minimum bactericidal concentration (E. coli UB1005): 32 µM
Minimum bactericidal concentration (E. coli ATCC 25922 [3]): 8 µM
Minimum bactericidal concentration (S. typhimurium ATCC14028): 128 µM
Minimum bactericidal concentration (S. epidermidis ATCC12228): 32 µM
Minimum bactericidal concentration [4]: 32 µM
TI (therapeutic index), gram-negative [5]: 0.03
TI (therapeutic index), gram-positive [6]: 0.03
MBC with CaCl2 (S. aureus ATCC 29213): 128 µM
MBC with FeCl3 (S. aureus ATCC 29213): 32 µM
MBC with KCl (S. aureus ATCC 29213): 32 µM
MBC with MgCl2 (S. aureus ATCC 29213): 32 µM
MBC with NH4Cl (S. aureus ATCC 29213): 32 µM
MBC with NaCl (S. aureus ATCC 29213): 32 µM
MBC with ZnCl2 (S. aureus ATCC 29213): 32 µM
MBC, control (S. aureus ATCC 29213): 32 µM

GKLWLKGGKLWLKGGKLWLKGGKLWLKG-NH2 [GG4]
Minimum bactericidal concentration (S. aureus ATCC29213): 128 µM
MBC with CaCl2 (E. coli ATCC 25922 [7]): 4 µM
MBC with FeCl3 (E. coli ATCC 25922 [7]): 4 µM
MBC with KCl (E. coli ATCC 25922 [7]): 4 µM
MBC with MgCl2 (E. coli ATCC 25922 [7]): 4 µM
MBC with NH4Cl (E. coli ATCC 25922 [7]): 4 µM
MBC with NaCl (E. coli ATCC 25922 [7]): 4 µM
MBC with ZnCl2 (E. coli ATCC 25922 [7]): 4 µM
MBC, control (E. coli ATCC 25922 [7]): 4 µM
TI (therapeutic index), all strains [1]: 0.40
MHC (minimum hemolytic concentration) [2]: 16 µM
Minimum bactericidal concentration (E. coli UB1005): 8 µM
Minimum bactericidal concentration (E. coli ATCC 25922 [3]): 4 µM
Minimum bactericidal concentration (S. typhimurium ATCC14028): 32 µM
Minimum bactericidal concentration (S. epidermidis ATCC12228): >128 µM
Minimum bactericidal concentration [4]: 128 µM
TI (therapeutic index), gram-negative [5]: 1.59
TI (therapeutic index), gram-positive [6]: 0.10

GLWKGKLGLWKGKLGLWKGKL-NH2 [GG3s2]
Minimum bactericidal concentration (S. aureus ATCC29213): 128 µM
TI (therapeutic index), all strains [1]: 10.08
MHC (minimum hemolytic concentration) [2]: >128 µM
Minimum bactericidal concentration (E. coli UB1005): 4 µM
Minimum bactericidal concentration (E. coli ATCC 25922 [3]): 4 µM
Minimum bactericidal concentration (S. typhimurium ATCC14028): 32 µM
Minimum bactericidal concentration (S. epidermidis ATCC12228): 64 µM
Minimum bactericidal concentration [4]: 64 µM
TI (therapeutic index), gram-negative [5]: 32
TI (therapeutic index), gram-positive [6]: 3.17
